Laboratory results as given in the supplement of paper PMC11451515.

Experiments:
Conditions in all cases: 48 h
[1] = test system: P12-Ichikawa; experiment: cell viability relative to DMSO control; higher = less cytotoxic
Outline: (§1)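 Library compounds in DMSO were pin-dosed in an 11-point threefold series (47 μM to 0.79 nM) onto leukemia cells in 1536-well plates (5 μl). Plates held 500 cells/well of NOMO1 or SEM or 1000 cells/well of P12-Ichikawa, each adapted for at least four passages in each medium. Luminescence was read with CellTiter-Glo One after 48 h at 37°C. Viability means the per-plate percentage relative to DMSO wells, using cell-free wells as background.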

[2] = test system: NOMO1; experiment: as above
Outline: as §1

[3] = test system: SEM cells; experiment: as above
Outline: as §1

[4] = test system: P12-Ichikawa; experiment: AUC of viability dose-response curve (% viability x log10 dose units); higher = less sensitive
Outline: (§2)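 Leukemia cells adapted to each medium were seeded in 1536-well plates (500 or 1000 cells/well). They were dosed with library compounds in DMSO at 11 threefold doses, 47 μM to 0.79 nM, for 48 h at 37°C. CellTiter-Glo One luminescence was normalised per plate to DMSO and cell-free wells. Area under the curve was integrated by trapezoidal rule over log10 doses on a four-parameter log-logistic fit; curves exceeding full viability were scaled and curves failing quality control removed.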

[5] = test system: NOMO1; experiment: as above
Outline: as §2

[6] = test system: SEM cells; experiment: as above
Outline: as §2

CC[C@H](C)[N]1C=C(C)C2=C1C=C(C=C2C(=O)NC\C3=C(C)\C=C(\C)NC3=O)C4=CC=C(N=C4)N5CCNCC5
cell viability [%]
Conditions | [1] | [2] | [3]
HPLM + 10% dialyzed FBS, 0.000781 µM | 109 | 112 | 106
HPLM + 10% dialyzed FBS, 0.00234 µM | 116 | 108 | 104
HPLM + 10% dialyzed FBS, 0.00702 µM | 114 | 125 | 112
HPLM + 10% dialyzed FBS, 0.0211 µM | 115 | 131 | 117
HPLM + 10% dialyzed FBS, 0.0632 µM | 115 | 130 | 114
HPLM + 10% dialyzed FBS, 0.19 µM | 122 | 129 | 106
HPLM + 10% dialyzed FBS, 0.569 µM | 116 | 124 | 112
HPLM + 10% dialyzed FBS, 1.71 µM | 117 | 104 | 117
HPLM + 10% dialyzed FBS, 5.12 µM | 114 | 127 | 113
HPLM + 10% dialyzed FBS, 15.4 µM | 118 | 122 | 113
HPLM + 10% dialyzed FBS, 46.1 µM | 109 | 82.3 | 99
RPMI 5 mM glucose + 10% FBS, 0.000781 µM | 104 | 105 | 83.5
RPMI 5 mM glucose + 10% FBS, 0.00234 µM | 116 | 108 | 105
RPMI 5 mM glucose + 10% FBS, 0.00702 µM | 117 | 121 | 108
RPMI 5 mM glucose + 10% FBS, 0.0211 µM | 118 | 123 | 102
RPMI 5 mM glucose + 10% FBS, 0.0632 µM | 117 | 122 | 113
RPMI 5 mM glucose + 10% FBS, 0.19 µM | 113 | 115 | 108
RPMI 5 mM glucose + 10% FBS, 0.569 µM | 126 | 126 | 99
RPMI 5 mM glucose + 10% FBS, 1.71 µM | 129 | 115 | 109
RPMI 5 mM glucose + 10% FBS, 5.12 µM | 117 | 128 | 96.5
RPMI 5 mM glucose + 10% FBS, 15.4 µM | 125 | 113 | 95
RPMI 5 mM glucose + 10% FBS, 46.1 µM | 106 | 102 | 101
RPMI 5 mM glucose + 10% dialyzed FBS, 0.000781 µM | 103 | 116 | 101
RPMI 5 mM glucose + 10% dialyzed FBS, 0.00234 µM | 107 | 125 | 120
RPMI 5 mM glucose + 10% dialyzed FBS, 0.00702 µM | 108 | 124 | 115
RPMI 5 mM glucose + 10% dialyzed FBS, 0.0211 µM | 113 | 127 | 108
RPMI 5 mM glucose + 10% dialyzed FBS, 0.0632 µM | 115 | 128 | 110
RPMI 5 mM glucose + 10% dialyzed FBS, 0.19 µM | 114 | 123 | 103
RPMI 5 mM glucose + 10% dialyzed FBS, 0.569 µM | 116 | 137 | 107
RPMI 5 mM glucose + 10% dialyzed FBS, 1.71 µM | 132 | 138 | 100
RPMI 5 mM glucose + 10% dialyzed FBS, 5.12 µM | 115 | 148 | 107
RPMI 5 mM glucose + 10% dialyzed FBS, 15.4 µM | 108 | 118 | 116
RPMI 5 mM glucose + 10% dialyzed FBS, 46.1 µM | 93.1 | 96.4 | 104

AUC of viability dose-response curve
Conditions | [4] | [5] | [6]
HPLM + 10% dialyzed FBS | 476 | 469 | 474
RPMI 5 mM glucose + 10% FBS | 468 | 475 | 472
RPMI 5 mM glucose + 10% dialyzed FBS | 474 | 467 | 463

COC1=CC=C(C=C1)C/2=C/OC3=C(C(=CC(=C3)O)O)C2=O
cell viability [%]
Conditions | [1] | [2] | [3]
HPLM + 10% dialyzed FBS, 0.000781 µM | 113 | 111 | 108
HPLM + 10% dialyzed FBS, 0.00234 µM | 120 | 124 | 124
HPLM + 10% dialyzed FBS, 0.00702 µM | 118 | 133 | 110
HPLM + 10% dialyzed FBS, 0.0211 µM | 77.2 | 114 | 95.9
HPLM + 10% dialyzed FBS, 0.0632 µM | 124 | 130 | 115
HPLM + 10% dialyzed FBS, 0.19 µM | 120 | 123 | 114
HPLM + 10% dialyzed FBS, 0.569 µM | 119 | 133 | 125
HPLM + 10% dialyzed FBS, 1.71 µM | 123 | 122 | 124
HPLM + 10% dialyzed FBS, 5.12 µM | 117 | 116 | 125
HPLM + 10% dialyzed FBS, 15.4 µM | 105 | 114 | 131
HPLM + 10% dialyzed FBS, 46.1 µM | 74.5 | 60.5 | 75.2
RPMI 5 mM glucose + 10% FBS, 0.000781 µM | 108 | – | 90.7
RPMI 5 mM glucose + 10% FBS, 0.00234 µM | 108 | – | 92.9
RPMI 5 mM glucose + 10% FBS, 0.00702 µM | 113 | – | 101
RPMI 5 mM glucose + 10% FBS, 0.0211 µM | 65.2 | – | 74.8
RPMI 5 mM glucose + 10% FBS, 0.0632 µM | 120 | – | 103
RPMI 5 mM glucose + 10% FBS, 0.19 µM | 120 | – | 100
RPMI 5 mM glucose + 10% FBS, 0.569 µM | 133 | – | 108
RPMI 5 mM glucose + 10% FBS, 1.71 µM | 121 | – | 106
RPMI 5 mM glucose + 10% FBS, 5.12 µM | 123 | – | 124
RPMI 5 mM glucose + 10% FBS, 15.4 µM | 127 | – | 114
RPMI 5 mM glucose + 10% FBS, 46.1 µM | 123 | – | 98.2
RPMI 5 mM glucose + 10% dialyzed FBS, 0.000781 µM | 118 | 111 | 98.7
RPMI 5 mM glucose + 10% dialyzed FBS, 0.00234 µM | 118 | 116 | 115
RPMI 5 mM glucose + 10% dialyzed FBS, 0.00702 µM | 119 | 120 | 122
RPMI 5 mM glucose + 10% dialyzed FBS, 0.0211 µM | 82 | 130 | 77.4
RPMI 5 mM glucose + 10% dialyzed FBS, 0.0632 µM | 131 | 156 | 133
RPMI 5 mM glucose + 10% dialyzed FBS, 0.19 µM | 133 | 144 | 130
RPMI 5 mM glucose + 10% dialyzed FBS, 0.569 µM | 129 | 144 | 132
RPMI 5 mM glucose + 10% dialyzed FBS, 1.71 µM | 137 | 140 | 138
RPMI 5 mM glucose + 10% dialyzed FBS, 5.12 µM | 133 | 140 | 143
RPMI 5 mM glucose + 10% dialyzed FBS, 15.4 µM | 134 | 143 | 145
RPMI 5 mM glucose + 10% dialyzed FBS, 46.1 µM | 93.7 | 106 | 132

AUC of viability dose-response curve
Conditions | [4] | [5] | [6]
HPLM + 10% dialyzed FBS | 465 | 460 | 463
RPMI 5 mM glucose + 10% FBS | 441 | 474 | 436
RPMI 5 mM glucose + 10% dialyzed FBS | 453 | 453 | 435

CC(C)CC(=O)N[C@H](C(=O)N[C@H](C(=O)N[C@@H](CC(C)C)[C@@H](O)CC(=O)N[C@@H](C)C(=O)N[C@@H](CC(C)C)[C@@H](O)CC(=O)O)C(C)C)C(C)C
cell viability [%]
Conditions | [1] | [2] | [3]
HPLM + 10% dialyzed FBS, 0.000781 µM | 103 | 107 | 94.4
HPLM + 10% dialyzed FBS, 0.00234 µM | 103 | 96.3 | 89.1
HPLM + 10% dialyzed FBS, 0.00702 µM | 107 | 120 | 109
HPLM + 10% dialyzed FBS, 0.0211 µM | 108 | 106 | 103
HPLM + 10% dialyzed FBS, 0.0632 µM | 105 | 112 | 74.7
HPLM + 10% dialyzed FBS, 0.19 µM | 114 | 117 | 95.9
HPLM + 10% dialyzed FBS, 0.569 µM | 118 | 118 | 101
HPLM + 10% dialyzed FBS, 1.71 µM | 116 | 108 | 108
HPLM + 10% dialyzed FBS, 5.12 µM | 105 | 119 | 97.7
HPLM + 10% dialyzed FBS, 15.4 µM | 111 | 124 | 96.6
HPLM + 10% dialyzed FBS, 46.1 µM | 97.9 | 119 | 14.5
RPMI 5 mM glucose + 10% FBS, 0.000781 µM | 108 | 105 | 82.7
RPMI 5 mM glucose + 10% FBS, 0.00234 µM | 109 | 119 | 96.7
RPMI 5 mM glucose + 10% FBS, 0.00702 µM | 121 | 94.4 | 115
RPMI 5 mM glucose + 10% FBS, 0.0211 µM | 109 | 107 | 94.7
RPMI 5 mM glucose + 10% FBS, 0.0632 µM | 97.6 | 102 | 68.1
RPMI 5 mM glucose + 10% FBS, 0.19 µM | 113 | 114 | 104
RPMI 5 mM glucose + 10% FBS, 0.569 µM | 105 | 99.8 | 106
RPMI 5 mM glucose + 10% FBS, 1.71 µM | 113 | 108 | 99
RPMI 5 mM glucose + 10% FBS, 5.12 µM | 122 | 93.1 | 98.7
RPMI 5 mM glucose + 10% FBS, 15.4 µM | 103 | 97.8 | 89.6
RPMI 5 mM glucose + 10% FBS, 46.1 µM | 108 | 90.3 | 10.4
RPMI 5 mM glucose + 10% dialyzed FBS, 0.000781 µM | 98.1 | 91.6 | 93.5
RPMI 5 mM glucose + 10% dialyzed FBS, 0.00234 µM | 99.7 | 98.4 | 116
RPMI 5 mM glucose + 10% dialyzed FBS, 0.00702 µM | 106 | 111 | 92.2
RPMI 5 mM glucose + 10% dialyzed FBS, 0.0211 µM | 102 | 115 | 93.4
RPMI 5 mM glucose + 10% dialyzed FBS, 0.0632 µM | 96.6 | 104 | 73.1
RPMI 5 mM glucose + 10% dialyzed FBS, 0.19 µM | 103 | 110 | 110
RPMI 5 mM glucose + 10% dialyzed FBS, 0.569 µM | 107 | 112 | 95.5
RPMI 5 mM glucose + 10% dialyzed FBS, 1.71 µM | 111 | 113 | 99.1
RPMI 5 mM glucose + 10% dialyzed FBS, 5.12 µM | 102 | 116 | 94.9
RPMI 5 mM glucose + 10% dialyzed FBS, 15.4 µM | 97.6 | 107 | 91.6
RPMI 5 mM glucose + 10% dialyzed FBS, 46.1 µM | 96 | 105 | 10.9

AUC of viability dose-response curve
Conditions | [4] | [5] | [6]
HPLM + 10% dialyzed FBS | 471 | 450 | 443
RPMI 5 mM glucose + 10% FBS | 476 | 445 | 435
RPMI 5 mM glucose + 10% dialyzed FBS | 477 | 467 | 437
